{
  "source": "patent US20090023186A1",
  "about": "“USE OF VALPROIC ACID FOR ENHANCING PRODUCTION OF RECOMBINANT PROTEINS IN MAMMALIAN CELLS” (EXCELLGENE SA, priority 2007, published 2009)",
  "key": {"CHO DG44 cells": {"tested_on": "CHO DG44 cells", "experiment": "Combination with IDMTs, IgG batch yield by ELISA (Example 6)", "format": "cell-based, Chinese Hamster", "details": "VPA 0.5 mmol/l; no addition = 100%; day 5 after transfection", "procedure": "10 million suspension-adapted HEK293E cells were resuspended in 0.5 ml of Ex-Cell 293 HEK 293 serum-free medium with 4 mmol/l L-glutamine (Cat. No. 14571C-[…]; Lot No. 6A0093; SAFC Biosciences, Lenexa, Kans., USA, “Ex-Cell” medium; note: “Ex-Cell” medium-as used herein-refers to a medium comprising 4 mmol/l L-glutamine) in a 50-ml filter tube each (TPP AG, Trasadingen, Switzerland; Cat. No. 87050, Lot 20050174). In a separate set, 10 million suspension-adapted CHO DG44 cells were resuspended in 0.5 ml of ProCHO5 serum-free medium with 4 mmol/[…] hypoxanthine and 0.194 g/l thymidine (BioWhittaker (Lonza), Belgium; Cat. No. BE12-[…]; Lot No. 7MB0040; “ProCHO5” medium; note: “ProCHO5” medium-as used herein-refers to a medium comprising 4 mmol/[…] hypoxanthine and 0.194 g/l thymidine) in a 50-ml filter tube each (TPP AG, Trasadingen, Switzerland; Cat. No. 87050, Lot 20050174). Then 12.5 μg plasmid DNA at a concentration of 1 μg/μl was added in each tube with the following composition 50% (6.25 μg) p-LC (SEQ ID NO: 1) 50% (6.25 μg) p-HC (SEQ ID NO: 3). Plasmid p-LC comprises the genetic information for the production of the light chain of an IgG antibody, plasmid p-HC comprises the genetic information for the production of the heavy chain of an IgG antibody. The particular vector constructs used in the present invention can also be obtained from the inventors. The inventors can be contacted via e-mail at […]. Moreover, commercial services do exist that produce any desired nucleotide sequence even comprising several kilobase pairs including complete expression cassettes in plasmid backgrounds (e.g., Invitrogen, Carlsbad, USA; Geneart, Germany.) Thus, providing the genetic sequence information of the plasmids should enable one of ordinary skill in the art to order the plasmids of the present invention at one of the commercial services listed. After shortly mixing the DNA with the cells by gentle shaking, 25 μg of 25-kd linear polyethyleneimine (“PEI”; Polysciences, Eppelheim, Germany; [2]) were added at a concentration of 1 μg/μl to each of the tubes. After shortly mixing by gentle shaking, the filter tubes containing the cells together with the DNA and PEI were transferred into an orbital shaker (Kühner Shaker Cabinet ISF-4-W, “Kühner shaker”, Kühner AG, Birsfelden, Switzerland), and the cells were incubated for 4 hours at 37° C. in a 5% CO2 atmosphere under shaking at 180 rpm. After that time, 4.5 ml of Ex-Cell medium were added to each of the filter tubes containing HEK 293 cells and 4.5 ml of Pro-CHO5 were added to each of the filter tubes containing CHO DG44 cells. Then, valproic acid was added to each of the tubes at the corresponding final concentration. In addition, the following chemicals were added to the corresponding tubes at a final concentration of: […] Azacytidine was purchased from Sigma-Aldrich Chemie GmbH, Industriestrasse 25, CH-9471 Buchs SG, Catalog Number A1287-1 VL. RG108 was purchased from Sigma-Aldrich Chemie GmbH, Industriestrasse 25, CH-9471 Buchs SG, Catalog Number R8279-10MG. The cells then were returned into the Kuhner shaker and incubated at 37° C. in a 5% CO2 atmosphere under shaking at 180 rpm. […] In short, Goat anti-human kappa light chain IgG (Biosource) was used for coating the ELISA-plates, and with AP-conjugated goat anti-human gamma chain IgG (Biosource) the synthesized IgG1 was detected. […] Absorption was measured at 405 nm against 490 nm using a microplate reader (SPECTRAmaxTM340; Molecular Devices, Palo Alto, Calif., USA)."}, "HEK293E cells": {"tested_on": "HEK293E cells", "experiment": "Preferred embodiment: transient IgG expression with p18 and p21 co-transfection, batch titer by ELISA", "format": "cell-based, Human", "details": "day 14 after transfection", "procedure": "20 million suspension-adapted HEK293E cells were resuspended in 1 ml of Ex-Cell 293 HEK 293 serum-free medium with 4 mmol/l L-glutamine (Cat. No. 14571C-[…]; Lot No. 6A0093; SAFC Biosciences, Lenexa, Kans., USA, “Ex-Cell” medium; note: “Ex-Cell” medium-as used herein-refers to a medium comprising 4 mmol/l L-glutamine) in a 50-ml filter tube each (TPP AG, Trasadingen, Switzerland; Cat. No. 87050, Lot 20050174). Then 50 μg plasmid DNA at a concentration of 1 μg/μl was added in each tube with the following composition […] Plasmid p-LC comprises the genetic information for the production of the light chain of an IgG antibody, plasmid p-HC comprises the genetic information for the production of the heavy chain of an IgG antibody, plasmid p-p18 comprises the genetic information for the protein p18, and plasmid p-p21 comprises the genetic information for the protein p21. The particular vector constructs used in the present invention can also be obtained from the inventors. The inventors can be contacted via e-mail at […]. Moreover, commercial services do exist that produce any desired nucleotide sequence even comprising several kilobase pairs including complete expression cassettes in plasmid backgrounds (e.g., Invitrogen, Carlsbad, USA; Geneart, Germany.) Thus, providing the genetic sequence information of the plasmids should enable one of ordinary skill in the art to order the plasmids of the present invention at one of the commercial services listed. After shortly mixing the DNA with the cells by gentle shaking, 100 μg of 25-kd linear polyethyleneimine (“PEI”; Polysciences, Eppelheim, Germany; [2]) were added at a concentration of 1 μg/μl to each of the tubes. After shortly mixing by gentle shaking, the filter tubes containing the cells together with the DNA and PEI were transferred into an orbital shaker (Kühner Shaker Cabinet ISF-4-W, “Kühner shaker”, Kühner AG, Birsfelden, Switzerland), and the cells were incubated for 3 hours at 37° C. in a 5% CO2 atmosphere under shaking at 180 rpm. After that time, 4 ml of Ex-Cell medium were added to each of the filter tubes. […] No. B5887-1G; Sigma-Aldrich Chemie GmbH, Industriestrasse 25, CH-9471 Buchs SG) was added to the corresponding tubes at the corresponding final concentrations. […] The ELISA was performed as published in prior art. In short, Goat anti-human kappa light chain IgG (Biosource) was used for coating the ELISA-plates, and with AP-conjugated goat anti-human gamma chain IgG (Biosource) the synthesized IgG1 was detected. NPP was used as a substrate for the alkaline phosphatase. Absorption was measured at 405 nm against 490 nm using a microplate reader (SPECTRAmaxTM340; Molecular Devices, Palo Alto, Calif., USA)."}},
  "data": [
    {"smiles": "CCCC(CCC)C(=O)O", "note": "[VPA, valproic acid]", "values": [
      {"measurement": "Fold increase in batch yield over control", "setting": "CHO DG44 cells", "value": "170% ± 20%"},
      {"measurement": "Batch titer", "setting": "HEK293E cells; 3.8 mmol/l VPA, IgG with p18 and p21", "value": "962 ± 73", "unit": "mg/L"},
      {"measurement": "Fold increase over control", "setting": "HEK293E cells; 3.8 mmol/l VPA", "value": 13.2, "unit": "fold"},
      {"measurement": "batch titers compared to adding sodium butyrate", "setting": "HEK293E cells", "value": "higher"}
    ]}
  ]
}
